≈ marks a conversion by molar mass, not a printed value. Where “and” joins values, the source holds several entries; their conditions need not be identical. Identical values can stand only once.
What was measured:
CYP3A4 = assay: Plasma 4β-hydroxycholesterol Day 14/Day 1 ratio (CYP3A4 induction); format: in vivo, human; conditions: repeated doses up to 20 mg BID, 14 days
Procedure: The plasma 4β-hydroxycholesterol on Day 14 versus Day 1 pre-dose concentration ratios were calculated to evaluate the potential for CYP3A4 enzyme induction by Compound 1 after repeated doses in Part 2.
PK population included all participants exposed to Compound 1 with no major or critical deviations related to Compound 1 and for whom PK data were considered sufficient and interpretable. PK parameters were summarized by descriptive statistics for each dose level group. Distribution of Tmax values was represented by histogram plots for each dose level group. In Part 1a, dose proportionality was assessed using a linear model on Cmax, AUClast and AUC. […] Steady state was assessed on Ctrough using a non-linear model. Accumulation was assessed using a linear model on log-transformed accumulation ratio. Dose proportionality was assessed using a power model on Cmax and AUCtau on Day 1 and Day 14, separately. […] In Part 1b, CSF concentration was described by dose level group and CSF to plasma unbound concentration ratios calculated were described in the same way. 4β-hydroxycholesterol on Day 14 versus Day 1 pre-dose concentration ratios were summarized using descriptive statistics by dose level group and point estimates with 90% confidence interval (90% CI) for the geometric mean of the log-transformed Day14/Day1 ratio was calculated in Part 2. […]

pRIPK1 = biological target: T1, pRIPK1 (Homo sapiens, UniProt Q13546); assay: Population PK/PD analysis of pRIPK1; format: in vivo
T1 construct: Human PBMC are a primary cell type that express endogenous RIPK kinase; endogenous in cells; host or cells: human PBMC isolated from blood of healthy participants
T1 sequence (Q13546 1-671): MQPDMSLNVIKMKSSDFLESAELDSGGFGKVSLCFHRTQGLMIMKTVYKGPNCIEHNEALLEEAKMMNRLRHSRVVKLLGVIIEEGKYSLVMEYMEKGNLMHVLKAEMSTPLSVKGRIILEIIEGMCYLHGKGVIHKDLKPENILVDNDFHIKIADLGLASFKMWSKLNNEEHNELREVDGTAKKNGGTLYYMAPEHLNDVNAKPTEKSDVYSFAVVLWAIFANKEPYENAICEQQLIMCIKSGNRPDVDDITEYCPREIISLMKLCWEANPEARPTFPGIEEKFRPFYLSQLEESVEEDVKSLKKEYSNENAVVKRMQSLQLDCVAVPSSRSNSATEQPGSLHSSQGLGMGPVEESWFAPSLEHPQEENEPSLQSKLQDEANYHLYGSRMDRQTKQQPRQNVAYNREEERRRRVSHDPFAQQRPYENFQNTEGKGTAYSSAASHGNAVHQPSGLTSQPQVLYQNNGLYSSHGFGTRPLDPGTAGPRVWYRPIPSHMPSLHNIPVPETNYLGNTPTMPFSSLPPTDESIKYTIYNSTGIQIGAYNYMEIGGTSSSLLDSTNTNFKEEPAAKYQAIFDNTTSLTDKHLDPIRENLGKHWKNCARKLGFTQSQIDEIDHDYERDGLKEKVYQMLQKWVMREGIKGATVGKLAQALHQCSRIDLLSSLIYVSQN
Procedure: An exploratory population pharmacokinetic/pharmacodynamic analysis of phosphorylated receptor-interacting protein kinase 1(pRIPK1) in healthy participants after single (SAD) and repeated (MAD) administrations of Compound 1 was carried out to develop a population PK/PD model from data after single and repeated doses in healthy adults and to derive individual parameters for each dose cohort.
The population PK/PD analysis was performed using the stochastic approximation expectation maximization (SAEM) algorithm for nonlinear mixed-effects models implemented in MONOLIX software (R1 2020). The observed plasma concentrations were used to develop the model with plasma concentrations from placebo participants and blow limit of quantitation (BLQ) plasma concentrations from verum participants being fixed to zero. Classical direct and indirect inhibitory models were evaluated. Model selection was based on objective function value Akaike and Bayesian Information criteria as well as standard goodness-of-fit plots (Psychol Methods. 2012 June; 17(2):228-43; Pharmaceutics. 2020 June; 12(6): 578.). From selected final population PK/PD model, individual PD parameters were derived and summarized by descriptive statistical analyses by study and dose level.
A total of 433 samples in 70 participants was considered (101, 121 and 211 samples after placebo, single dose and repeated doses, respectively). No data from potential outliers were excluded. In placebo participants, a very large inter-cohort and inter-individual variability was observed. […] Selection of structural PK/PD model confirmed that a direct relationship best described the data overall.

[1] = Nonhuman primate toxicology study (NOAEL exposure); format: in vivo; conditions: 20 mg BID vs nonhuman primate study

CC(C)(C(=O)N1CCOc2c(C#N)cncc2C1)C(F)F [Compound 1, 4-(3,3-difluoro-2,2-dimethyl-propanoyl)-3,5-dihydro-2H-pyrido[3,4-f] [1,4]oxazepine-9-carbonitrile]
Potential for CYP3A4 induction (CYP3A4): no potential for CYP3A4 induction
EC91, plasma conc for 91% decrease in E0 (pRIPK1; derived typical value): 23.9 ng/mL
EC92, plasma conc for 92% decrease in E0 (pRIPK1; derived typical value): 30.7 ng/mL
EC93, plasma conc for 93% decrease in E0 (pRIPK1; derived typical value): 43.3 ng/mL
EC94, plasma conc for 94% decrease in E0 (pRIPK1; derived typical value): 76.1 ng/mL
EC95, plasma conc for 95% decrease in E0 (pRIPK1; derived typical value): 0.6 µg/mL
EC50 (pRIPK1; derived typical value, read-out: EC50, plasma conc for 50% decrease in E0 (converted)): 6.2 nM
EC90 (pRIPK1; derived typical value, read-out: EC90, plasma conc for 90% decrease in E0): 0.0197 µg/mL (≈ 0.0667 µM)
0(Gamma) (pRIPK1; population PK/PD model): 49.5%
E0, baseline effect (pRIPK1; population PK/PD model): 8541 AU_signal
σprop (pRIPK1; population PK/PD model): 44.5%
ω(E0) (pRIPK1; population PK/PD model): 73.7%
ω(IC50) (pRIPK1; population PK/PD model): 71.4%
ω(Imax) (pRIPK1; population PK/PD model): 192%
Gamma (pRIPK1; population PK/PD model, sigmoidal Imax): 1.17
Imax, maximum inhibitory effect on pRIPK1 (pRIPK1; population PK/PD model, typical value, SAD and MAD data): 95.1% and 95%
IC50 (pRIPK1; population PK/PD model, typical value, SAD and MAD data, read-out: IC50, plasma concentration needed for 50% of Imax (pRIPK1) (converted)): 5.69 nM
Safety margin relative to the NOAEL exposure [1]: 10 fold

— patent publication US20240100065A1, “METHODS FOR TREATING RECEPTOR-INTERACTING PROTEIN KINASE 1-MEDIATED DISEASES” (Genzyme Corporation, priority 2022, published 2024)
